Publication PMC8953592, “Mechanism of Action and Therapeutic Potential of the β-Hairpin Antimicrobial Peptide Capitellacin from the Marine Polychaeta Capitella teleta” (Marine Drugs, 2022)
Positions of bridges follow the written chain, without caps; N, C: chain ends. Residues, ends and D or L forms follow the SMILES beside them.

Assays:
E. cloacae CI 4172 = conditions: CI 4172, 24 h
E. coli CI 214 = conditions: CI 214, 24 h
E. coli ML-35p [1] = conditions: 24 h
Bacillus subtilis B-886 = conditions: B-886, 24 h
A. baumanii CI 2675 = conditions: 24 h
[2] = test system: Staphylococcus aureus 209P; conditions: 24 h
human red blood cells = assay: Hemolytic assay (hemoglobin release); conditions: human erythrocytes
Method: To examine the ability of the peptides to permeabilize cytoplasmic membranes of bacterial and mammalian cells, the ONPG test and hemolysis assay were used, respectively. […] The hemolytic activity of AMPs against a suspension of human erythrocytes was determined by the method of double serial dilution in buffered saline followed by incubation for 1.5 h (Figure 2A). […] Next, we used ONPG assay to estimate E. coli inner membrane permeabilization by the peptides.
The hemolytic activity of compounds was performed using human red blood cells (hRBS), in accordance with the previously described approach. Briefly, hRBS of a healthy donor were separated from fresh blood and washed 3 times with ice-cold phosphate-buffered saline (PBS pH 7.4) and centrifuged at 500× g for 10 min; additionally, citrate buffer was added to prevent clotting. Further, supernatant was discarded and erythrocyte suspension was prepared in PBS as 8% (v/v) solution. The test was carried out in the 96-well plate, taking into account two-fold serial dilutions of studied peptides. […] Then the plate was centrifuged at 1000× g for 15 min for the precipitation of erythrocyte. The amount of hemoglobin release was determined by absorption spectroscopy at 405 nm. Triton X-100 (0.1% v/v) was used as a positive control, which underwent a complete lysis of erythrocytes, and PBS working solution was used as a negative control. The percentage hemolysis was calculated by the following formula: Hemolysis (%)=OD405(compound)− OD405 (zero lysis)/OD405(100 % lysis)− OD405 (zero lysis)×100%
The assays were conducted three times. The quantitative data were presented as an average means with standard deviations.

E. coli CI 3600 = conditions: CI 3600, 24 h
E. coli ATTC 25922 = conditions: ATTC 25922, 24 h
[3] = test system: Micrococcus luteus B-1314; conditions: B-1314, 24 h
Gram-positive bacteria = conditions: Gram-positive test strains
P. aeruginosa PAO1 = conditions: PAO1, 24 h
K. pneumonia ATCC 700603 = conditions: ATCC 700603, 24 h
Gram-negative bacteria = conditions: Gram-negative test strains
E. coli ML-35p [4] = test system: E. coli ML-35p; parameters: method as in 2 sources, one per row (each row's own in cited_ref): ref 4, 19, 27 = [4]; PMID 33291782; doi:10.3390/md18120620; 4. Panteleev P.V. Tsarev A.V. Safronova V.N. Reznikova O.V. Bolosov I.A. Sychev S.V. Shenkarev Z.O. Ovchinnikova T.V. Structure Elucidation and Functional Studies of a Novel β-Hairpin Antimicrobial Pe || [19]; PMID 26814379; doi:10.1002/psc.2843; 19. Panteleev P.V. Bolosov I.A. Ovchinnikova T.V. Bioengineering and Functional Characterization of Arenicin Shortened Analogs with Enhanced Antibacterial Activity and Cell Selectivity J. Pept. Sci. 2 || [27]; PMID 25558400; doi:10.32607/20758251-2014-6-4-99-109; 27. Shamova O.V. Orlov D.S. Balandin S.V. Shramova E.I. Tsvetkova E.V. Panteleev P.V. Leonova Y.F. Tagaev A.A. Kokryakov V.N. Ovchinnikova T.V. Acipensins—Novel Antimicrobial Peptides from Leukocytes ||| ref 4 = [4]; PMID 33291782; doi:10.3390/md18120620; 4. Panteleev P.V. Tsarev A.V. Safronova V.N. Reznikova O.V. Bolosov I.A. Sychev S.V. Shenkarev Z.O. Ovchinnikova T.V. Structure Elucidation and Functional Studies of a Novel β-Hairpin Antimicrobial Pe; conditions: at a concentration several-fold higher than MIC; cited from earlier work
E. coli MDR CI 1057 = assay type: cell-based

Molecule: CC[C@H](C)[C@@H]1NC(=O)[C@@H](NC(=O)[C@@H](NC(=O)[C@@H](N)CCCNC(=N)N)C(C)C)CSSC[C@@H](C(=O)N[C@@H](Cc2c[nH]c3ccccc23)C(=O)O)NC(=O)[C@H](CCCNC(=N)N)NC(=O)[C@H](CCCNC(=N)N)NC(=O)[C@H](Cc2ccc(O)cc2)NC(=O)[C@@H]2CSSC[C@H](NC(=O)[C@H](C(C)C)NC(=O)[C@H](CCCNC(=N)N)NC1=O)C(=O)N[C@@H](Cc1ccc(O)cc1)C(=O)N[C@@H](CCCNC(=N)N)C(=O)NCC(=O)N[C@@H](C(C)C)C(=O)N2 [CT7] (H-RVCIRVCYRGVCYRRCW-OH; disulfide 3-16, 7-12)
- Minimum Inhibitory Concentration (E. cloacae CI 4172): 2 µM
- Minimum Inhibitory Concentration (E. coli CI 214): 0.25 µM
- Minimum Inhibitory Concentration (E. coli ML-35p [1]): 0.5 µM
- Minimum Inhibitory Concentration (Bacillus subtilis B-886): 4 µM
- Minimum Inhibitory Concentration (A. baumanii CI 2675): 0.125 µM
- Minimum Inhibitory Concentration [2]: 2 µM
- maximum level of lysis (hemolysis) (human red blood cells; 128 μM peptide, 1.5 h incubation, PBS, 37 °C, absorbance 405 nm, Triton X-100 = 100%): ~50%
- Minimum Inhibitory Concentration (E. coli CI 3600): 0.25 µM
- Minimum Inhibitory Concentration (E. coli ATTC 25922): 0.25 µM
- Minimum Inhibitory Concentration [3]: 1 µM
- Geometric mean (GM) of the peptide MICs (Gram-positive bacteria): 2 µM
- Minimum Inhibitory Concentration (P. aeruginosa PAO1): 1 µM
- Minimum Inhibitory Concentration (K. pneumonia ATCC 700603): 4 µM
- Geometric mean (GM) of the peptide MICs (Gram-negative bacteria): 0.55 µM

Molecule: CC[C@H](C)[C@@H]1NC(=O)[C@@H](NC(=O)[C@@H](NC(=O)[C@@H](N)CCCNC(=N)N)C(C)C)CSSC[C@@H](C(=O)N[C@@H](Cc2c[nH]c3ccccc23)C(=O)O)NC(=O)[C@H](CCCNC(=N)N)NC(=O)[C@H](CCCNC(=N)N)NC(=O)[C@H](Cc2ccc(O)cc2)NC(=O)[C@@H]2CSSC[C@H](NC(=O)[C@H](C(C)C)NC(=O)[C@H](CCCNC(=N)N)NC1=O)C(=O)N[C@@H](CCCNC(=N)N)C(=O)N[C@@H](CC(N)=O)C(=O)NCC(=O)N[C@@H](C(C)C)C(=O)N2 [CT4]
- Geometric mean (GM) of the peptide MICs (Gram-positive bacteria): 6.35 µM
- Geometric mean (GM) of the peptide MICs (Gram-negative bacteria): 0.59 µM

Molecule: CC[C@H](C)[C@@H]1NC(=O)[C@@H](NC(=O)[C@@H](NC(=O)[C@H](CCCNC(=N)N)NC(=O)[C@@H]2CCCN2C(=O)[C@H](CO)NC(=O)[C@@H](N)CCCNC(=N)N)C(C)C)CSSC[C@@H](C(=O)N[C@@H](Cc2c[nH]c3ccccc23)C(=O)NCC(=O)O)NC(=O)[C@H](CCCNC(=N)N)NC(=O)[C@H](CCCNC(=N)N)NC(=O)[C@H](Cc2ccc(O)cc2)NC(=O)[C@@H]2CSSC[C@H](NC(=O)[C@H](C(C)C)NC(=O)[C@H](CCCNC(=N)N)NC1=O)C(=O)N[C@@H](CCCNC(=N)N)C(=O)N[C@@H](CC(N)=O)C(=O)NCC(=O)N[C@@H](C(C)C)C(=O)N2 [CT2]
- Geometric mean (GM) of the peptide MICs (Gram-positive bacteria): 3.17 µM
- Geometric mean (GM) of the peptide MICs (Gram-negative bacteria): 0.46 µM

Molecule: CC[C@H](C)[C@@H]1NC(=O)[C@@H](NC(=O)[C@@H](NC(=O)[C@H](CCCNC(=N)N)NC(=O)[C@@H]2CCCN2C(=O)[C@@H](N)CO)C(C)C)CSSC[C@@H](C(=O)N[C@@H](Cc2c[nH]c3ccccc23)C(=O)NCC(=O)O)NC(=O)[C@H](CCCNC(=N)N)NC(=O)[C@H](CCCNC(=N)N)NC(=O)[C@H](Cc2ccc(O)cc2)NC(=O)[C@@H]2CSSC[C@H](NC(=O)[C@H](C(C)C)NC(=O)[C@H](CCCNC(=N)N)NC1=O)C(=O)N[C@@H](CCCNC(=N)N)C(=O)N[C@@H](CC(N)=O)C(=O)NCC(=O)N[C@@H](C(C)C)C(=O)N2 [Cap, capitellacin]
- hemolytic effect after 24 h exposure (human red blood cells; 128 µM, 24 h): 50%
- concentration above which toxic effect was observed after 24 h (human red blood cells; 24 h, 32 µM = 64× MIC): above 32 µM
- Geometric mean (GM) of the peptide MICs (Gram-positive bacteria): 8 µM
- Geometric mean (GM) of the peptide MICs (Gram-negative bacteria): 1 µM

Molecule: CC(C)[C@@H]1NC(=O)CNC(=O)[C@H](CC(N)=O)NC(=O)[C@H](CCCNC(=N)N)NC(=O)[C@@H]2CSSC[C@H](NC1=O)C(=O)N[C@@H](Cc1ccc(O)cc1)C(=O)N[C@@H](CCCNC(=N)N)C(=O)N[C@@H](CCCNC(=N)N)C(=O)N[C@H](C(=O)N[C@@H](Cc1c[nH]c3ccccc13)C(=O)O)CSSC[C@H](NC(=O)[C@@H](NC(=O)[C@@H](N)CCCNC(=N)N)C(C)C)C(=O)N[C@@H](Cc1ccccc1)C(=O)N[C@@H](CCCNC(=N)N)C(=O)N[C@@H](C(C)C)C(=O)N2 [CT6]
- Geometric mean (GM) of the peptide MICs (Gram-positive bacteria): 6.35 µM
- Geometric mean (GM) of the peptide MICs (Gram-negative bacteria): 0.55 µM

Molecule: arenicin-1
- membrane permeabilization after 60 min (E. coli ML-35p [4]): almost full membrane permeabilization

Molecule: CC[C@H](C)[C@@H]1NC(=O)[C@@H](NC(=O)[C@H](Cc2c[nH]c3ccccc23)NC(=O)[C@@H](N)CCCCN)CSSC[C@@H](C(=O)N[C@@H](CCCNC(=N)N)C(=O)O)NC(=O)[C@H](CCCNC(=N)N)NC(=O)[C@H](CCCNC(=N)N)NC(=O)[C@H](Cc2ccc(O)cc2)NC(=O)[C@@H]2CSSC[C@H](NC(=O)[C@H](C(C)C)NC(=O)[C@H](CCCNC(=N)N)NC1=O)C(=O)N[C@@H](CCCNC(=N)N)C(=O)N[C@@H](CC(N)=O)C(=O)NCC(=O)N[C@@H](C(C)C)C(=O)N2 [CT5]
- Minimum Inhibitory Concentration (E. cloacae CI 4172): 4 µM
- Minimum Inhibitory Concentration (E. coli CI 214): 0.5 µM
- Minimum Inhibitory Concentration (E. coli ML-35p [1]): 0.5 µM
- Minimum Inhibitory Concentration (Bacillus subtilis B-886): 32 µM
- Minimum Inhibitory Concentration (A. baumanii CI 2675): 0.5 µM
- Minimum Inhibitory Concentration [2]: 8 µM
- Minimum Inhibitory Concentration (E. coli CI 3600): 0.5 µM
- Minimum Inhibitory Concentration (E. coli ATTC 25922): 0.5 µM
- Minimum Inhibitory Concentration [3]: 8 µM
- Geometric mean (GM) of the peptide MICs (Gram-positive bacteria): 12.7 µM
- Minimum Inhibitory Concentration (P. aeruginosa PAO1): 4 µM
- Minimum Inhibitory Concentration (K. pneumonia ATCC 700603): 4 µM
- Geometric mean (GM) of the peptide MICs (Gram-negative bacteria): 1.09 µM

Molecule: polymyxin B
- Initial MIC value (E. coli MDR CI 1057; E. coli MDR CI 1057, Mueller–Hinton medium containing added NaCl, before passages): 0.125 µM
- increase in MIC value after 9 passages (E. coli MDR CI 1057; E. coli MDR CI 1057, after just 9 passages): 64 fold

Molecule: protegrin-1
- membrane permeabilization after 60 min (E. coli ML-35p [4]): almost full membrane permeabilization

Molecule: CC[C@H](C)[C@@H]1NC(=O)[C@@H](NC(=O)[C@@H](NC(=O)[C@H](CCCNC(=N)N)NC(=O)[C@@H]2CCCN2C(=O)[C@@H](N)CO)C(C)C)CSSC[C@@H](C(=O)N[C@@H](Cc2c[nH]c3ccccc23)C(=O)O)NC(=O)[C@H](CCCNC(=N)N)NC(=O)[C@H](CCCNC(=N)N)NC(=O)[C@H](Cc2ccc(O)cc2)NC(=O)[C@@H]2CSSC[C@H](NC(=O)[C@H](C(C)C)NC(=O)[C@H](CCCNC(=N)N)NC1=O)C(=O)N[C@@H](CCCNC(=N)N)C(=O)N[C@@H](CC(N)=O)C(=O)NCC(=O)N[C@@H](C(C)C)C(=O)N2 [CT3]
- Geometric mean (GM) of the peptide MICs (Gram-positive bacteria): 10.08 µM
- Geometric mean (GM) of the peptide MICs (Gram-negative bacteria): 1.09 µM
